Assay results published in ChEMBL document CHEMBL5154863, “Design and synthesis of quinolinium-based derivatives targeting FtsZ for antibacterial evaluation and mechanistic study” (Eur J Med Chem, 2022).
pKd: −log10 of the molar value. In brackets after ≈: the same amount, converted by molar mass. Activity calls are given as the source filed them. The calls are words filed in the database; no cut-off is given here.

Legend:
[1] = test system: Staphylococcus aureus; assay: Antibacterial activity against Staphylococcus aureus ATCC 29213 assessed as inhibition of bacterial growth incubated for 20 to 24 hrs by broth micro dilution method; assay type: functional; details: time 20-24 hrs
[2] = test system: Enterococcus faecium; assay: Antibacterial activity against Enterococcus faecium ATCC 49624 assessed as inhibition of bacterial growth incubated for 20 to 24 hrs by broth micro dilution method; assay type: functional; details: time 20-24 hrs
[3] = test system: Enterococcus faecium; assay: Antibacterial activity against vancomycin-resistant Enterococcus faecium clinical isolate assessed as inhibition of bacterial growth incubated for 20 to 24 hrs by broth micro dilution method; assay type: functional; details: time 20-24 hrs
[4] = test system: Klebsiella pneumoniae; assay: Antibacterial activity against NDM-1 expressing Klebsiella pneumoniae ATCC BAA 2470 assessed as inhibition of bacterial growth incubated for 20 to 24 hrs by broth micro dilution method; assay type: functional; details: time 20-24 hrs
[5] = test system: Acinetobacter baumannii; assay: Antibacterial activity against multi-drug resistant Acinetobacter baumannii ATCC 19606 assessed as inhibition of bacterial growth incubated for 20 to 24 hrs by broth micro dilution method; assay type: functional; details: time 20-24 hrs
[6] = test system: Enterococcus faecium; assay: Antibacterial activity against vancomycin resistant Enterococcus faecium ATCC 700221 assessed as inhibition of bacterial growth incubated for 20 to 24 hrs by broth micro dilution method; assay type: functional; details: time 20-24 hrs
[7] = test system: Enterococcus faecalis; assay: Antibacterial activity against Enterococcus faecalis ATCC 29212 assessed as inhibition of bacterial growth incubated for 20 to 24 hrs by broth micro dilution method; assay type: functional; details: time 20-24 hrs
[8] = test system: Staphylococcus aureus; assay: Antibacterial activity against methicillin-resistant Staphylococcus aureus ATCC BAA-1720 assessed as inhibition of bacterial growth incubated for 20 to 24 hrs by broth micro dilution method; assay type: functional; details: time 20-24 hrs
[9] = test system: Escherichia coli; assay: Antibacterial activity against Escherichia coli ATCC 8739 assessed as inhibition of bacterial growth incubated for 20 to 24 hrs by broth micro dilution method; assay type: functional; details: time 20-24 hrs
[10] = test system: Escherichia coli; assay: Antibacterial activity against NDM-1 expressing Escherichia coli ATCC BAA2469 assessed as inhibition of bacterial growth incubated for 20 to 24 hrs by broth micro dilution method; assay type: functional; details: time 20-24 hrs
[11] = test system: Staphylococcus epidermidis; assay: Antibacterial activity against Staphylococcus epidermidis ATCC 12228 assessed as inhibition of bacterial growth incubated for 20 to 24 hrs by broth micro dilution method; assay type: functional; details: time 20-24 hrs
[12] = test system: Staphylococcus aureus; assay: Antibacterial activity against methicillin-resistant Staphylococcus aureus ATCC 33592 assessed as inhibition of bacterial growth incubated for 20 to 24 hrs by broth micro dilution method; assay type: functional; details: time 20-24 hrs
[13] = test system: Staphylococcus aureus; assay: Induction of drug resistance against Staphylococcus aureus ATCC 29213 assessed as fold increase in MIC after 16 passage; assay type: functional
[14] = test system: Pseudomonas aeruginosa; assay: Antibacterial activity against […] Pseudomonas aeruginosa ATCC 27853 assessed as inhibition of bacterial growth incubated for 20 to 24 hrs by broth micro dilution method; assay type: functional; details: time 20-24 hrs
[15] = test system: Bacillus subtilis; assay: Antibacterial activity against Bacillus subtilis CMCC (B) 63501 assessed as inhibition of bacterial growth incubated for 20 to 24 hrs by broth micro dilution method; assay type: functional; details: time 20-24 hrs
[16] = test system: Staphylococcus aureus; assay: Antibacterial activity against vancomycin-intermediate Staphylococcus aureus Mu50 assessed as inhibition of bacterial growth incubated for 20 to 24 hrs by broth micro dilution method; assay type: functional; details: time 20-24 hrs
[17] = test system: Staphylococcus aureus; assay: Antibacterial activity against methicillin-resistant Staphylococcus aureus ATCC 43300 assessed as inhibition of bacterial growth incubated for 20 to 24 hrs by broth micro dilution method; assay type: functional; details: time 20-24 hrs
[18] = test system: Escherichia coli; assay: Antibacterial activity against Escherichia coli ATCC 25922 assessed as inhibition of bacterial growth incubated for 20 to 24 hrs by broth micro dilution method; assay type: functional; details: time 20-24 hrs
[19] = test system: Staphylococcus aureus; assay: Induction of morphological changes in Staphylococcus aureus ATCC 29213 assessed as enlargement of cell size at 0.5 times MIC for 4 hrs by microscopic analysis; assay type: functional, organism-based
[20] = test system: Staphylococcus aureus; assay: Antibacterial activity against methicillin-resistant Staphylococcus aureus ATCC BAA41 assessed as inhibition of bacterial growth incubated for 24 hrs by checker board assay; assay type: functional
[21] = Ratio of MBC for bactericidal activity against Enterococcus faecium ATCC 700221 to MIC for antibacterial activity against Enterococcus faecium ATCC 700221; assay type: functional
[22] = target: T1, Cell division protein FtsZ (Staphylococcus aureus) (UniProt P0A031); assay: Binding affinity to Staphylococcus aureus FtsZ assessed as decrease in beta turn structure at 8 ug/ml incubated for 30 mins by circular dichroism method; details: dose 8.0 µg/ml
T1 sequence (whole entry): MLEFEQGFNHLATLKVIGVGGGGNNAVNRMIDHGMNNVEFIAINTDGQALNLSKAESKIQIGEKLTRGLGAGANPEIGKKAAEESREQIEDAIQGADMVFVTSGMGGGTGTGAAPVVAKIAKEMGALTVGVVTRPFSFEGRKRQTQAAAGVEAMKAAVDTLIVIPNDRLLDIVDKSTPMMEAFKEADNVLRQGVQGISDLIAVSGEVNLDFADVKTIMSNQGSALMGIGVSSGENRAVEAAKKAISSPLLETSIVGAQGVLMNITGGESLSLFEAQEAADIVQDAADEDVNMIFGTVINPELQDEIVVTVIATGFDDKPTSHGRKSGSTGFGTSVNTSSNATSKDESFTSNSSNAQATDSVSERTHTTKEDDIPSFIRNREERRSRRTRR

[23] = Ratio of MBC for bactericidal activity against Staphylococcus aureus ATCC 43300 to MIC for antibacterial activity against Staphylococcus aureus ATCC 43300; assay type: functional
[24] = test system: Staphylococcus aureus; assay: Bactericidal activity against Staphylococcus aureus ATCC 29213 assessed as inhibition of bacterial growth incubated for 24 hrs by resazurin dye based microtiter plate assay; assay type: functional
[25] = test system: Bacillus subtilis; assay: Bactericidal activity against Bacillus subtilis CMCC (B) 63501 assessed as inhibition of bacterial growth incubated for 24 hrs by resazurin dye based microtiter plate assay; assay type: functional
[26] = test system: Enterococcus faecium; assay: Bactericidal activity against Enterococcus faecium ATCC 700221 assessed as inhibition of bacterial growth incubated for 24 hrs by resazurin dye based microtiter plate assay; assay type: functional
[27] = Ratio of MBC for bactericidal activity against Staphylococcus aureus ATCC 29213 to MIC for antibacterial activity against Staphylococcus aureus ATCC 29213; assay type: functional
[28] = test system: Bacillus subtilis; assay: Induction of morphological changes in Bacillus subtilis CMCC (B) 63501 assessed as elongation of bacterial cell at 0.5 times MIC for 4 hrs (reference value: 3 to 5 um) by microscopic analysis; assay type: functional
[29] = target: T1, Cell division protein FtsZ (Staphylococcus aureus); assay: Binding affinity to Staphylococcus aureus FtsZ assessed as equilibrium binding constant by isothermal titration calorimetry
[30] = target: T1, Cell division protein FtsZ (Staphylococcus aureus); assay: Binding affinity to Staphylococcus aureus FtsZ assessed as decrease in random coil structure at 8 ug/ml incubated for 30 mins by circular dichroism method; details: dose 8.0 µg/ml
[31] = test system: Staphylococcus aureus; assay: Bactericidal activity against Staphylococcus aureus ATCC 43300 assessed as inhibition of bacterial growth incubated for 24 hrs by resazurin dye based microtiter plate assay; assay type: functional
[32] = target: T1, Cell division protein FtsZ (Staphylococcus aureus); assay: Binding affinity to Staphylococcus aureus FtsZ assessed as increase in alpha helix structure at 8 ug/ml incubated for 30 mins by circular dichroism method; details: dose 8.0 µg/ml
[33] = test system: Staphylococcus aureus; assay: Antibacterial activity against methicillin-resistant Staphylococcus aureus ATCC BAA41 assessed as fractional inhibitory concentration index incubated for 24 hrs by checker board assay; assay type: functional
[34] = Ratio of MBC for bactericidal activity against Bacillus subtilis CMCC (B) 63501 to MIC for antibacterial activity against Bacillus subtilis CMCC (B) 63501; assay type: functional
[35] = target: T2, Cell division protein FtsZ (Staphylococcus aureus, UniProt P0A031); assay: Binding affinity to Staphylococcus aureus FtsZ assessed as dissociation constant by isothermal titration calorimetry
T2 sequence (P0A031 whole entry): T1 sequence (whole entry)

[36] = target: T1, Cell division protein FtsZ (Staphylococcus aureus); assay: Induction of Staphylococcus aureus FtsZ polymerization expressed in Escherichia coli BL21 (DE3) assessed as increase in absorbance at 2 to 8 ug/ml in presence of GTP by microplate reader method; details: dose 2-8 µg/ml, DDE = dose-dependent effect
[37] = test system: Staphylococcus aureus; assay: Synergistic antibacterial activity against methicillin-resistant Staphylococcus aureus ATCC BAA41 assessed as inhibition of bacterial growth incubated for 24 hrs in presence of methicillin by checker board assay; assay type: functional
[38] = target: T1, Cell division protein FtsZ (Staphylococcus aureus); assay: Binding affinity to Staphylococcus aureus FtsZ assessed as decrease in other structure at 8 ug/ml incubated for 30 mins by circular dichroism method; details: dose 8.0 µg/ml

Row | SMILES | MIC [1] [mg/L] | MIC [2] [mg/L] | MIC [3] [mg/L] | MIC [4] [mg/L] | MIC [5] [mg/L] | MIC [6] [mg/L] | MIC [7] [mg/L] | MIC [8] [mg/L] | MIC [9] [mg/L] | MIC [10] [mg/L] | MIC [11] [mg/L] | MIC [12] [mg/L] | MIC [14] [mg/L] | MIC [15] [mg/L] | MIC [16] [mg/L] | MIC [17] [mg/L] | MIC [18] [mg/L] | Activity [19] | MIC [20] [mg/L] | Ratio [21] | also measured
1 | CO[C@H]1/C=C/O[C@@]2(C)Oc3c(C)c(O)c4c(O)c(c(/C=N/N5CCN(C)CC5)c(O)c4c3C2=O)NC(=O)/C(C)=C\C=C\[C@H](C)[C@H](O)[C@@H](C)[C@@H](O)[C@@H](C)[C@H](OC(C)=O)[C@@H]1C [RIFAMPIN] | 0.5 (≈ 0.608 µM) | < 0.125 | 8 (≈ 9.72 µM) | > 64 | > 64 | < 0.125 | 0.125 (≈ 0.152 µM) | < 0.125 | 8 (≈ 9.72 µM) | > 64 | 1 (≈ 1.22 µM) | > 64 | > 64 | 0.125 (≈ 0.152 µM) | 0.125 (≈ 0.152 µM) | < 0.125 | 2 (≈ 2.43 µM) |  |  |  | fold change (FC) [13]: 4096
2 | CN(C)c1ccc(/C=C/c2cc(N3CCCCC3)c3ccccc3[n+]2C)cc1.[I-] | 1 | 8 | 4 | > 64 | 64 | 1 | 4 | 2 | 64 | 64 | 1 | 1 | > 64 | 2 | 2 | 1 | 16 | Active | 16 | 4 | Activity [22]: Active; Ratio [23]: 4; MBC [24]: 8 mg/L; MBC [25]: 4 mg/L; MBC [26]: 4 mg/L; Ratio [27]: >4; Activity [28]: 30 um; Kb [29]: 2.02 10^5/M; Activity [30]: Active; MBC [31]: 4 mg/L; Activity [32]: Active; fractional inhibitory concentration index (FICI) [33]: 0.25; Ratio [34]: 2; pKd [35]: 5.60; Activity [36]: Dde; MIC [37]: 2 mg/L; Activity [38]: Active
3 | CCCCCNc1cc(/C=C/c2ccc(N(C)C)cc2)[n+](C)c2ccccc12.[I-] | 2 | 8 | 4 | > 64 | > 64 | 4 | 4 | 1 | > 64 | > 64 | 1 | 2 | > 64 | 4 | 4 | 2 | 64 | Active | 4 | 2 | Activity [22]: Active; Ratio [23]: 4; MBC [24]: 8 mg/L; MBC [25]: 4 mg/L; MBC [26]: 8 mg/L; Ratio [27]: 4; Activity [28]: 30 um; Kb [29]: 2.01 10^5/M; Activity [30]: Active; MBC [31]: 8 mg/L; Activity [32]: Active; fractional inhibitory concentration index (FICI) [33]: 0.375; Ratio [34]: 1; pKd [35]: 5.62; Activity [36]: Dde; MIC [37]: 0.5 mg/L; Activity [38]: Active
